Tests used:
[1] = test system: 7×TCF/LEF response elements (Super 8×TOPFlash reporter); assay: Promoter activation assay, Super 8×TOPFlash luciferase reporter in ATDC5 cells stimulated with Wnt3a; assay type: cell-based, mouse; conditions: peptide at 300 ng/ml; 10 or 100 ng/mL recombinant Wnt3a; 24 h
Description: Results were normalized by-cotransfecting each of the above plasmid with the tyrosine kinase-renilla luciferase plasmid (Promega). Transfections were carried out using the Dharmafect kb transfection reagent (Fisher Scientific). Briefly, reporter plasmids and transfection reagent were diluted in serum-free medium, and then the diluted Dharmafect kb was added to the plasmids for an incubation time of 10 minutes at room temperature. During that time, cells were rinsed with PBS and were placed in fresh maintenance medium. When incubation was over, the mixture of transfection reagent-plasmids was dispensed in each well. Stimulations (with Wnt3a and/or PEP16 and/or PEP16bis) were carried out the next day.

MC3T3-E1 cells = assay: Quantification of mineralization (Alizarin Red) in MC3T3-E1 cells; assay type: cell-based, mouse; conditions: PEP16 at 100 or 300 ng/mL; day 21; absorbance 405 nm
Description: Each time point was processed in three technical replicates. The medium was changed every two days.
Cells were washed with PBS and fixed with 95% ice-cold ethanol for 30 min at 4° C. for staining. After washing with distilled water, cells were stained with Alizarin Red staining (1% Alizarin Red S (Sigma)), washed three times with distilled water to remove unbound staining and air-dried. Quantification of the staining was performed by dissolving the mineral content in 800 μl of 10% acetic acid for 30 minutes. Then, the wells were scraped, the content of each well was harvested in a separate tube and vortexed for 30 seconds. Each tube was heated at 85° C. for 10 minutes, then put on ice for 5 minutes. Finally, tubes were centriguated at 13000 rpm for 15 minutes, the liquid phase was harvested and mixed with 100 μl of 10% ammonium hydroxide. Absorbance was measured at 405 nm with a spectrophotometer (Varioskan Flash, Thermo Fisher Scientific).
The mineralization level was evaluated by a biochemical assay as previously described after 21 days of differentiation culture. Results are representative of 3 experiments.

ATDC5 micromasses = assay: qRT-PCR relative expression of genes of interest in ATDC5 micromass culture (chondrogenesis); assay type: cell-based, mouse
Description: Mouse chondrogenic ATDC5 cells (cartilage-specific chondrogenic strain) were cultured until confluent in maintenance medium containing 1:1 Dulbecco's modified Eagle's medium (DMEM): Ham's F-12 mix (Gibco) supplemented with 1% antibiotic (AB, Penicillin-Streptomycin, Gibco), 5% fetal bovine serum (FBS) (Gibco) and enriched with […] human transferrin (Sigma) and 30 nM sodium selenite (Sigma). Cells were trypsinized, washed and resuspended at 2.10^7 cells/mL in a chondrogenic medium made of maintenance medium enriched by 1× of ITS premix (resulting in 10 μg/mL insulin, 10 μg/mL human transferrin and 30 nM sodium selenite) (Life technologies). One droplet of cell suspension (10 μL) was placed at the center of each well of a 24-well plate. Cells were allowed to adhere for 2 h at 37° C., followed by addition of 500 μL chondrogenic medium supplemented. […] After 14 days, induction of hypertrophic differentiation and mineralization was induced by the mineralization medium made of α-MEM medium (Gibco) containing 1% AB, 5% FBS, 5 μg/ml human transferrin, 1× of ITS premix, 50 μg/ml ascorbic acid-2-phosphate (AA) (Sigma) and 10 mM β-glycerophosphate (BGP) (Sigma). […] Micromasses were collected at time points 1, 7, 14 21 and 28 days. Each time point was processed in three technical replicates. The medium was changed every other day. […] The genes of interest were articular chondrocyte markers (aggrecan, type 2 collagen (col2a1)), YAP/TAZ target genes (ctgf, ankrd) and pro-catabolic enzymes involved in the pathophysiology of OA (mmp3, mmp13).
Total RNA was isolated using the Nucleospin RNA II kit (Macherey-Nagel) and reverse-transcribed using the MMLV reverse transcriptase (Thermo Fisher Scientific) following the manufacturers' instructions. The iTaq SYBR green qPCR master mix (BioRad) was used to assess the mRNA expression of target genes of interest. Primer sequences can be provided upon request. The following PCR conditions were used: 1 minute at 95° C., 40 cycles of 15 sec of denaturation at 95° C., followed by 1 minute of annealing-elongation at 60° C. Melting curve analysis was performed to determine the amplification of the specific product. Results were expressed using the comparative threshold method and were normalized to housekeeping gene PPIA (Peptidylprolyl Isomerase A) mRNA level for ATDC5 cells and MACs, or normalized to housekeeping gene S29 (ribosomal protein S29) mRNA level for MC3T3-E1 cells. The Via7 real-time PCR system (Thermo Fisher Scientific) was used for qRT-PCR measurements.
(§1) ATDC5 cells were cultured as micromasses and differentiated during 14 days using ITS as mentioned previously. […] RNA was isolated and qPCR were performed for different target genes, i.e. type II collagen and aggrecan (articular chondrocyte extracellular matrix), CTGF (YAP/TAZ target genes, indicators of the pathway activity) and MMP3 (cartilage degrading enzyme increased during osteoarthritis) (FIG. 15). Alcian blue staining was performed on the micromasses cultures, and biochemical quantitation was performed as previously described (FIG. 16).
as §1, with “gene, indicator” for “genes, indicators”, “17).” for “15).”, “18).” for “16).”

Wnt/β-catenin pathway = conditions: PEP16 at 300 or 1000 ng/mL; day 7, 14, 21; during osteogenesis
Description: Cells were maintained in a humidified atmosphere of 5% CO2 at 37° C.

MMP13 = MMP13 enzymatic activity in culture supernatants of human articular cartilage explants (osteoarthritis); assay type: cell-based; conditions: PEP16 at 300 ng/mL for 7 days (3 stimulations); explants from 3 patients with end-stage osteoarthritis
Description: Explants of human articular cartilage were obtained from total knee replacement surgeries, from the orthopedic department from the CHRU of Nancy (Pr. Didier Mainard). Samples were washed three times in 1% AB/PBS and incubated for 24 h in growth medium (DMEM-F12, containing 1% AB (Gibco), 10% FBS (Gibco) and 5% L-glutamine (Thermoscientific). Explants were then stimulated with PEP16 at the concentration of 300 ng/ml during 7 days. The culture supernatants were then harvested in order to perform MMP13 enzymatic activity assay.
The MMP13 enzymatic activity was assessed using the MMP13 fluorogenic substrate (Merck Millipore). Briefly, culture supernatants harvested at the end of the different experiments were mixed with 1.5 mM of 4-aminophenylmercuric acetate, and incubated for 1 h at 37° C., in order to turn every pro-MMPs into active MMPs. Then, the fluorogenic substrate was added, and the mixture was incubated for 3 h at 37° C. Fluorescence was evaluated using the following parameters, excitation 325 nm and emission 393 nm, on the Varioskan Flash device (Thermo Fisher Scientific). Recombinant human MMP13 was used as a positive control (Merck Millipore). Negative control consisted in growth medium.

[2] = 300 ng/ml, differentiated 14 days with ITS, D14 vs CTL
[3] = PEP16 at 30, 100, 300 ng/mL, day 1, 7, 14, 21, 28, vs non-treated control, normalized with ppia

## DRLGKKVKRWDMKLRH (PEP16) [peptide derived from the netrin-like domain of the FRZB protein]
[1]
  activity of the canonical Wnt pathway in the Super TOPFlash luciferase reporter system (Firefly/renilla ratio): significantly reduce the activity
MC3T3-E1 cells
  mineralization quantification (mineral content in the extracellular matrix): significantly increased the accumulation of mineral content
ATDC5 micromasses; [2]
  MMP3 expression: significant decrease
  YAP/TAZ target genes (CTGF) expression: significant decrease
  articular chondrocyte extracellular matrix genes (type II collagen and aggrecan) expression: significant increase
ATDC5 micromasses; [3]
  relative expression level of aggrecan: significantly enhanced the induction of the expression
  relative expression level of col2a1 (type 2 collagen): significantly enhanced the induction of the expression
  relative expression level of ctgf (Hippo/YAP/TAZ target gene): efficiently reduced the expression
  relative expression level of mmp3: efficiently reduced the expression
  relative expression level of mmp13: efficiently reduced the expression
Wnt/β-catenin pathway
  Wnt/β-catenin pathway activation: reduced in the activation
MMP13
  MMP13 enzymatic activity in culture supernatant: capable of reducing the enzymatic activity
